From paper PMC12186256, “Inhibitors of the PqsR Quorum-Sensing Receptor Reveal Differential Roles for PqsE and RhlI in Control of Phenazine Production” (ACS Chemical Biology, 2025)

Assays:
[1] = target: T1, PqsR (Pseudomonas aeruginosa, UniProt Q9I4X0); experiment: E. coli PqsR/ppqsA-lux reporter assay; type: cell-based
T1 construct: expressed in transfected cells; host or cells: Escherichia coli carrying pBAD-pqsR and pCS26-ppqsA-luxCDABE
Description: To determine the target(s) of the 49 hit compounds in P. aeruginosa, we assayed them in a set of E. coli-based reporter strains that read out exclusively RhlR, LasR, or PqsR function. The three assays work by a similar logic. In each case, the gene encoding one of the three quorum-sensing receptors is driven by an arabinose-inducible promoter. The receptor proteins, once made, are activated by exogenously supplied cognate autoinducer. The receptor–autoinducer complexes activate a target gene promoter fused to luciferase (prhlA-lux for RhlR, plasB-lux for LasR, and ppqsA-lux for PqsR). […] To further verify that PqsR is the target of our inhibitors, we assessed whether production of PQS and its precursor, HHQ, declined following treatment of WT P. aeruginosa with one test compound, A7. […] Below, we focus on these 30 compounds that we propose target PqsR. The other 19 compounds will be characterized at a later time.
As previously reported, following overnight growth in LB liquid medium at 37 °C, E. coli reporter strains were diluted 1:1000 in LB liquid medium containing 1% arabinose (PqsR) or 0.1% arabinose (LasR and RhlR). The reporter strain for PqsR activity carried pCS26-ppqsA-luxCDABE and pBAD-pqsR. The reporter strain for LasR activity carried pCS26-plasB-luxCDABE and pBAD-lasR; the reporter strain for RhlR activity carried pCS26-prhlA-luxCDABE and pBAD-rhlR. Test compounds were added at the specified concentrations. To activate PqsR, PQS was added at 100 nM. To activate LasR, 3O-C12-HSL was added at 5 nM. To activate RhlR, C4-HSL was added at 10 μM. To establish IC50 values, 10-point, […] serial dilution series were made starting at 100 μM of each compound. The mixtures were incubated at 37 °C for 24 h (BioSpa, Agilent). Bioluminescence and OD600 were assessed every 15 min (Neo2, Agilent). Readings from the 9 h time point, representing peak signal production, were used to calculate the IC50 values.

[2] = system: pphz1-lux in WT P. aeruginosa; experiment: P. aeruginosa pphz1-lux bioluminescent reporter assay; type: cell-based, Pseudomonas aeruginosa PA14; conditions: for IC50: Pseudomonas aeruginosa, PA14, read-out: IC50 PA14; for IC50 values in P. aeruginosa: pphz1-lux in WT P. aeruginosa
Description: Strains were struck onto LB agar and grown overnight at 37 °C. The following day, individual colonies were isolated and transferred into LB liquid medium followed by incubation at 37 °C. After overnight growth, cultures were diluted 1:1000 into M9 medium. 100 μL of these suspensions were aliquoted into wells of 96 well plates (Corning). Plates were incubated for 24 h at 37 °C in a BioSpa Automated Incubator (Agilent). Light production and OD600 were quantified from each well at either 15 or 20 min intervals (Neo2, Agilent). When noted, SPR741 (DC Chemicals) was added at the specified concentration.
One thousand small molecules from the initial screen were selected for retesting, following the identical protocol used for the screen. Of these molecules, 751 were assayed for luciferase inhibition using P. aeruginosa containing ptac-lux instead of pphz1-lux. Any compound that inhibited this reporter by at least 50% was eliminated from the pipeline. One hundred and sixty-seven compounds were further analyzed in dilution series to determine IC50 values with respect to pphz1-lux inhibition. A ten-point, 2-fold serial dilution series was made of each test compound in DMSO solvent. The highest tested concentration was 40 μM. These assays were carried out in 384 well plates (Corning) as described above using both the P. aeruginosa ptac-lux and pphz1-lux reporter strains.

[3] = system: WT P. aeruginosa; experiment: Pyocyanin inhibition assay; type: cell-based, Pseudomonas aeruginosa; conditions: 100 μM compound
Description: WT P. aeruginosa and the ΔpqsE mutant were struck onto LB agar and grown overnight at 37 °C. Individual colonies were diluted into 5 mL of LB liquid medium. Aliquots were transferred into glass tubes containing test compounds with and without 8 μg/mL SPR741. WT P. aeruginosa to which DMSO had been added served as the negative control. The P. aeruginosa ΔpqsE strain to which DMSO had been added served as the positive control. Compounds were tested at 100 μM. Tubes were shaken for 18 h at 37 °C followed by centrifugation at 15,000 rpm for 5 min. Cell-free culture fluids were collected and assessed for pyocyanin by absorbance at 695 nm. Values were normalized by culture density, using absorbance at OD600. Percent inhibition of OD695/OD600 was normalized to the DMSO control.

[4] = system: WT P. aeruginosa; experiment: Real time PCR of phzH and phzS; type: cell-based, Pseudomonas aeruginosa; conditions: 100 μM compound, qPCR relative to DMSO
Description: Following overnight growth in LB at 37 °C with aeration, P. aeruginosa strains were diluted to an OD600 of 0.001 and grown to an OD600 of 3 at 37 °C with aeration. 500 μL of cells were collected by centrifugation and flash frozen. RNA was extracted using RNAeasy Plus mini columns (Qiagen). DNA was removed, followed by cDNA synthesis, using SuperScript IV VILO Master Mix with ezDNase Enzyme (Invitrogen). RNA was quantified using PerfeCTa SYBR Green FastMix Low ROX (Quanta BioSciences). Relative quantity is calculated by ΔΔCt compared to DMSO treatment and the reference gene, rpsL. Outliers with values higher or lower than twice the standard deviation of the mean were removed.

[5] = system: WT P. aeruginosa; experiment: Quinolone (HHQ, PQS) quantitation by LCMS in culture fluids; type: cell-based, Pseudomonas aeruginosa; conditions: WT P. aeruginosa treated with 100 μM compound; compared with ΔpqsR
Description: For all assays: the designated P. aeruginosa strains were grown as described above for the pyocyanin inhibition assay. Following overnight growth, culture fluids were separated from cells by centrifugation and filtration.
For quinolone quantitation: cell-free culture fluids were extracted with 2 mL of ethyl acetate that had been acidified with 0.15 mL/L glacial acetic acid. The organic layer was isolated and dried down in vacuo. Dried samples were resuspended in 50 μL of methanol and analyzed by LCMS on an Agilent 1290 Infinity II HPLC connected to an MSD iQ. The injection was 2 μL. The mobile phase was a water–MeCN gradient containing 0.1% formic acid. Chromatography was performed as follows: 2 min hold at 5% […], ramp up to 95% MeCN over 8 min hold for 2 min at 95% MeCN, return to 5% MeCN and re-equilibrate for 1 min. Data were acquired in positive mode scanning between m/z 100–1000. Source parameters for acquisition were as follows: gas temperature 325 °C, gas flow 11 (L/min), capillary voltage 3500 V. Data were processed using Agilent OpenLAB CDS. Peaks were extracted by m/z, quantified by area under the curve. Each compound was compared to a 100 ng/μL commercial standard of PQS or HHQ.

T1 sequence (Q9I4X0 whole entry): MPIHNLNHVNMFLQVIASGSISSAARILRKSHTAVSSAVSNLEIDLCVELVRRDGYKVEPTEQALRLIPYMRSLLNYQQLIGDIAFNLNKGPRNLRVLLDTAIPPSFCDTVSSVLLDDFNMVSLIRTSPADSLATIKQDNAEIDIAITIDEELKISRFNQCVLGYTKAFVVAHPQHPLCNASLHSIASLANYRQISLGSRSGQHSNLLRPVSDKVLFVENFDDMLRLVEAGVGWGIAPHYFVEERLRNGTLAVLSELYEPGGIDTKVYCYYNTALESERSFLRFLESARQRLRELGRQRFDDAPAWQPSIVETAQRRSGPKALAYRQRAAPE

O=C(NCc1ccc(OC(F)F)cc1)c1ccc(C2SCCS2)cc1 [Compound D6]
IC50 [1]: 420 ± 45 nM | IC50 [2]: 530 ± 28 nM | IC50 values in P. aeruginosa [2]: submicromolar

CC(=O)c1cc(-c2ccccc2)n(CC(=O)Nc2nc3ccc(C)cc3s2)c1C [Compound B14]
IC50 [1]: 14500 ± 3390 nM | IC50 [2]: 11400 ± 900 nM

Cc1nn(-c2ccccc2)c(-n2cccc2)c1C(=O)N1CCC(C(=O)NCCc2ccccc2)CC1 [Compound B3]
IC50 [1]: 5200 ± 1700 nM | IC50 [2]: 2000 ± 280 nM

O=C(Nc1ccc(Cl)c(Cl)c1)c1ccc(=O)n(Cc2cccc(F)c2)n1 [Compound E5]
IC50 [1]: 2870 ± 840 nM | IC50 [2]: 2300 ± 120 nM

CC(C)C(C(=O)O)N1C(=O)C(=Cc2cccc(Br)c2)SC1=S (stereo not shown) [Compound E6]
IC50 [2]: 9700 ± 490 nM

O=C(NC1CCN(Cc2cc(F)cc(F)c2)CC1)c1cc(C(F)(F)F)n[nH]1 [Compound C8]
IC50 [1]: 270 ± 40 nM | IC50 [2]: 3900 ± 380 nM

N#Cc1cccc(CNCC2Cn3nnc(-c4ccccc4)c3CO2)c1 (stereo not shown) [Compound A9]
IC50 [1]: 3900 ± 650 nM | IC50 [2]: 38000 ± 2400 nM

O=C(NC(C(=O)N1CCOCC1)C12CC3CC(CC(C3)C1)C2)c1ccc([N+](=O)[O-])cc1 (stereo not shown) [Compound B10]
IC50 [2]: 10500 ± 1400 nM

COc1ccc(Cl)cc1C(=O)NCC(O)C1CCCCC1 (stereo not shown) [Compound D3]
IC50 [1]: 8390 ± 75 nM | IC50 [2]: 8200 ± 770 nM

Cc1ccc(C(=O)NCc2nc(-c3ccc(Oc4ccccc4)cc3)no2)cc1 [Compound B9]
IC50 [1]: 2000 ± 240 nM

Oc1cc(CN2CCC(CCn3cccn3)CC2)nc2ccc(F)cc12 [Compound C9]
IC50 [1]: 210 ± 80 nM | IC50 [2]: 7600 ± 250 nM

Cc1cc(Br)ccc1NC(=O)CNC(=O)c1ccc(-n2cnc3ccccc32)cc1 [Compound D1]
IC50 [1]: 1990 ± 880 nM | IC50 [2]: 3900 ± 320 nM | pyocyanin inhibition without versus with SPR741 [3]: improved pyocyanin inhibition in the absence of SPR741 compared to in its presence

Cc1noc(CN2CCCC(CCC(=O)Nc3ccc(C(F)(F)F)cc3)C2)n1 (stereo not shown) [Compound C11]
IC50 [1]: 2940 ± 830 nM | IC50 [2]: 2800 ± 190 nM

O=C(Cn1nnc(-c2ccccc2)n1)Nc1ccc(Br)cc1 [Compound C6]
IC50 [1]: 370 ± 80 nM

COc1cccc(-c2nc(CC(=O)Nc3ccc(F)cc3)no2)c1 [Compound C2]
IC50 [1]: 830 ± 170 nM | IC50 [2]: 3200 ± 80 nM

CCOc1ccc(-n2nnnc2CNC(=O)Nc2cccc(Cl)c2)cc1 [Compound B8]
IC50 [1]: 2370 ± 770 nM | IC50 [2]: 6400 ± 1000 nM

O=S(=O)(Nc1ccc(F)cc1Cl)c1ccc(-c2cc(C(F)(F)F)n[nH]2)s1 [Compound B7]
IC50 [1]: 3800 ± 300 nM | IC50 [2]: 3500 ± 360 nM

N#Cc1ccc(NCC2CCC3(COCCN(Cc4ccccc4OC(F)F)C3)O2)nc1 (stereo not shown) [Compound A8]
IC50 [1]: 1900 ± 440 nM | IC50 [2]: 800 ± 200 nM | IC50 values in P. aeruginosa [2]: submicromolar | phzH expression [4]: reduction only to the level displayed by the ΔpqsE mutant | phzS expression [4]: reduced to the level in the ΔpqsE strain

O=S(=O)(c1ccc(-c2cc(C(F)(F)F)n[nH]2)s1)N1CC=C(c2ccccc2)CC1 [Compound B6]
IC50 [1]: 550 ± 120 nM | IC50 [2]: 400 ± 30 nM | IC50 values in P. aeruginosa [2]: submicromolar

N#Cc1cc(CN2CCC3(CC2)CC(Nc2ncccn2)C3)ccc1F [Compound A7]
IC50 [1]: 510 ± 160 nM | IC50 [2]: 2200 ± 230 nM | production of HHQ [5]: reduced to the level made by the P. aeruginosa ΔpqsR strain | production of PQS [5]: reduced to the level made by the P. aeruginosa ΔpqsR strain

O=C(c1csc2nc(-c3ccc(F)cc3)cn12)N1CCN(c2ccccc2F)CC1 [Compound E3]
IC50 [2]: 5000 ± 260 nM

O=C(Nc1nnc(C(F)(F)F)s1)C1CC(=O)N(CCc2c[nH]c3ccc(Cl)cc23)C1 (stereo not shown) [Compound B4]
IC50 [1]: 590 ± 70 nM | IC50 [2]: 2800 ± 100 nM

N#Cc1cnc(SCC(=O)Nc2ccc(Cl)c(Br)c2)nc1N [Compound C7]
IC50 [1]: 670 ± 80 nM | IC50 [2]: 2400 ± 400 nM

Cc1cc(Br)ccc1OCCn1cnc2ccccc2c1=O [Compound D4]
IC50 [1]: 1230 ± 310 nM | IC50 [2]: 1100 ± 28 nM

CC(C)Oc1ccc(N2CC(C(=O)Nc3cccc(Cl)c3Cl)CC2=O)cc1 (stereo not shown) [Compound B2]
IC50 [1]: 4700 ± 560 nM | IC50 [2]: 4900 ± 260 nM

N#CCc1ccc(NC(=O)CNc2ccc(C(F)(F)F)cc2)cc1 [Compound D2]
IC50 [1]: 1320 ± 170 nM | IC50 [2]: 2300 ± 20 nM

CCOC1CCN(C(=O)c2cccc(-c3ccc(OC(F)F)cc3)c2)CC1 [Compound C10]
IC50 [2]: 4400 ± 160 nM

O=C(CN1CCC(c2nc(-c3cccc(F)c3)no2)CC1)Nc1ccccc1 [Compound B15]
IC50 [1]: 7040 ± 1180 nM | IC50 [2]: 8600 ± 190 nM

O=C(Cn1cnc2c(oc3ccccc32)c1=O)N1CCC(Cc2ccccc2)CC1 [Compound B12]
IC50 [1]: 14500 ± 1900 nM | IC50 [2]: 10500 ± 1200 nM

O=C(NCc1cccs1)C1CCN(c2ccc3nnc(-c4ccccc4F)n3n2)CC1 [Compound B13]
IC50 [1]: 11900 ± 980 nM
